# Laboratory results published in ChEMBL document CHEMBL1201862, “PubChem BioAssay data set” (2004).
#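 96-well plates; 48 h exposure; 5 concentrations. Endpoints by linear interpolation between flanking doses. Not reached: highest tested concentration assigned. GI50 = concentration required for 50% inhibition of growth.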 Active and inactive are the calls of the source. No stated cut-off is given here; in the data, active = GI50 up to about 1.1 µM and inactive = higher.
# Assays:
# Assay in all cases: NCI-60 cell line screen, 48 h
# [1] = test system: A549
# [2] = test system: HOP-62
# [3] = test system: SK-OV-3
# [4] = test system: OVCAR-5
# [5] = test system: SK-MEL-28
# [6] = test system: HCT-116
# [7] = test system: SF-295
# [8] = test system: UO-31
# [9] = test system: U-251
# [10] = test system: OVCAR-3
# [11] = test system: SF-268
# [12] = test system: KM12
# [13] = test system: SW-620
# [14] = test system: K562
# [15] = test system: UACC-257
# [16] = test system: SR
# [17] = test system: A498
# [18] = test system: SK-MEL-2
# [19] = test system: NCI-H226
# [20] = test system: M14
# [21] = test system: RPMI-8226
# [22] = test system: COLO 205
# [23] = test system: NCI-H23
# [24] = test system: IGROV-1
# [25] = test system: CCRF-CEM
# [26] = test system: XF498
# [27] = test system: DMS-273
# [28] = test system: HL-60
# [29] = test system: M19-MEL
# [30] = test system: CAKI-1
# [31] = test system: EKVX
# [32] = test system: HOP-92
# [33] = test system: ACHN
# [34] = test system: HCC 2998
# [35] = test system: SNB-78
# [36] = test system: MOLT-4
# [37] = test system: HCT-15
# [38] = test system: Malme-3M
# [39] = test system: KM-20L2
# [40] = test system: SNB-19
# [41] = test system: SN12C
# [42] = test system: DMS-114
# [43] = test system: OVCAR-8
# [44] = test system: SF-539
# [45] = test system: UACC-62
# [46] = test system: LOX IMVI
# [47] = test system: 786-0
# [48] = test system: OVCAR-4
# [49] = test system: HT-29
# [50] = test system: NCI-H522
# [51] = test system: NCI-H460
# [52] = test system: SK-MEL-5
# [53] = test system: LXFL 529
# [54] = test system: SNB-75
# [55] = test system: HOP-18
# [56] = test system: RXF 393
# [57] = test system: DLD-1
# [58] = test system: TK-10
smiles,measurement,setting,value
COc1ccccc1/C=C(\C#N)C(=O)c1ccccc1,GI50,[1],> 100 µM (inactive)
same,GI50,[2],> 100 µM (inactive)
same,GI50,[3],> 100 µM (inactive)
same,GI50,[4],> 100 µM (inactive)
same,GI50,[5],> 100 µM (inactive)
same,GI50,[6],> 100 µM (inactive)
same,GI50,[7],> 100 µM (inactive)
same,GI50,[8],> 100 µM (inactive)
same,GI50,[9],> 100 µM (inactive)
same,GI50,[10],> 100 µM (inactive)
same,GI50,[11],> 100 µM (inactive)
same,GI50,[12],> 100 µM (inactive)
same,GI50,[13],> 100 µM (inactive)
same,GI50,[14],> 100 µM (inactive)
same,GI50,[15],> 100 µM (inactive)
same,GI50,[16],> 100 µM (inactive)
same,GI50,[17],> 100 µM (inactive)
same,GI50,[18],> 100 µM (inactive)
same,GI50,[19],> 100 µM (inactive)
same,GI50,[20],> 100 µM (inactive)
same,GI50,[21],> 100 µM (inactive)
same,GI50,[22],> 100 µM (inactive)
same,GI50,[23],> 100 µM (inactive)
same,GI50,[24],> 100 µM (inactive)
same,GI50,[25],> 100 µM (inactive)
same,GI50,[26],> 100 µM (inactive)
same,GI50,[27],> 100 µM (inactive)
same,GI50,[28],> 100 µM (inactive)
same,GI50,[29],> 100 µM (inactive)
same,GI50,[30],> 100 µM (inactive)
same,GI50,[31],> 100 µM (inactive)
same,GI50,[32],> 100 µM (inactive)
same,GI50,[33],> 100 µM (inactive)
same,GI50,[34],> 100 µM (inactive)
same,GI50,[35],> 100 µM (inactive)
same,GI50,[36],> 100 µM (inactive)
same,GI50,[37],> 100 µM
same,GI50,[38],> 100 µM (inactive)
same,GI50,[39],> 100 µM (inactive)
same,GI50,[40],> 100 µM (inactive)
same,GI50,[41],> 100 µM (inactive)
same,GI50,[42],> 100 µM (inactive)
same,GI50,[43],> 100 µM (inactive)
same,GI50,[44],> 100 µM (inactive)
same,GI50,[45],> 100 µM (inactive)
same,GI50,[46],> 100 µM (inactive)
same,GI50,[47],> 100 µM (inactive)
same,GI50,[48],> 100 µM (inactive)
same,GI50,[49],> 100 µM (inactive)
same,GI50,[50],> 100 µM (inactive)
same,GI50,[51],> 100 µM (inactive)
same,GI50,[52],> 100 µM (inactive)
Cn1cc2ccccc2c1-c1nc(F)nc(Oc2ccc3c(c2)CC[C@@H]2C3CC[C@]3(C)C(O)CCC23)n1 (stereo partly specified),GI50,[1],22.1 µM (inactive)
same,GI50,[2],16.7 µM (inactive)
same,GI50,[3],17.2 µM (inactive)
same,GI50,[4],18.6 µM (inactive)
same,GI50,[5],16.3 µM (inactive)
same,GI50,[6],17.5 µM (inactive)
same,GI50,[7],15.3 µM (inactive)
same,GI50,[8],21.7 µM (inactive)
same,GI50,[9],12 µM (inactive)
same,GI50,[10],17.7 µM (inactive)
same,GI50,[11],17.3 µM (inactive)
same,GI50,[53],10.4 µM (inactive)
same,GI50,[12],> 10 µM (inactive)
same,GI50,[13],19.5 µM (inactive)
same,GI50,[14],29.2 µM (inactive)
same,GI50,[15],18.8 µM (inactive)
same,GI50,[18],16.5 µM (inactive)
same,GI50,[19],52.7 µM (inactive)
same,GI50,[20],15.9 µM (inactive)
same,GI50,[22],22.3 µM (inactive)
same,GI50,[23],> 10 µM (inactive)
same,GI50,[24],13.7 µM (inactive)
same,GI50,[25],5.78 µM (inactive)
same,GI50,[54],14.2 µM (inactive)
same,GI50,[27],19.8 µM (inactive)
same,GI50,[29],21.7 µM (inactive)
same,GI50,[30],> 10 µM (inactive)
same,GI50,[31],> 10 µM (inactive)
same,GI50,[32],18.4 µM (inactive)
same,GI50,[33],18.5 µM (inactive)
same,GI50,[34],19.9 µM (inactive)
same,GI50,[35],12.2 µM (inactive)
same,GI50,[36],17.6 µM (inactive)
same,GI50,[37],14.6 µM
same,GI50,[38],18.3 µM (inactive)
same,GI50,[39],20.2 µM (inactive)
same,GI50,[55],15.3 µM (inactive)
same,GI50,[40],18.7 µM (inactive)
same,GI50,[41],15.4 µM (inactive)
same,GI50,[42],13.8 µM (inactive)
same,GI50,[43],17.4 µM (inactive)
same,GI50,[44],17.4 µM (inactive)
same,GI50,[56],22.6 µM (inactive)
same,GI50,[46],15.8 µM (inactive)
same,GI50,[47],16.9 µM (inactive)
same,GI50,[48],14.2 µM (inactive)
same,GI50,[50],10.9 µM (inactive)
same,GI50,[57],15.9 µM (inactive)
same,GI50,[52],15 µM (inactive)
same,GI50,[58],16.2 µM (inactive)
COc1cc(OC)c(/C=C2\N=C(C)N(Nc3nnc(NN4C(=O)/C(=C/c5c(OC)cc(OC)cc5OC)N=C4C)c4ccccc34)C2=O)c(OC)c1,GI50,[1],> 100 µM (inactive)
same,GI50,[2],> 100 µM (inactive)
same,GI50,[4],> 100 µM (inactive)
same,GI50,[5],> 100 µM (inactive)
same,GI50,[6],> 100 µM (inactive)
same,GI50,[7],93.3 µM (inactive)
same,GI50,[9],> 100 µM (inactive)
same,GI50,[11],> 100 µM (inactive)
same,GI50,[53],> 100 µM (inactive)
same,GI50,[12],> 100 µM (inactive)
same,GI50,[13],> 100 µM (inactive)
same,GI50,[14],> 100 µM (inactive)
same,GI50,[15],> 100 µM (inactive)
same,GI50,[16],> 100 µM (inactive)
same,GI50,[17],> 100 µM (inactive)
same,GI50,[19],> 100 µM (inactive)
same,GI50,[20],> 100 µM (inactive)
same,GI50,[21],> 100 µM (inactive)
same,GI50,[22],> 100 µM (inactive)
same,GI50,[23],> 100 µM (inactive)
same,GI50,[24],> 100 µM (inactive)
same,GI50,[25],> 100 µM (inactive)
same,GI50,[54],42.3 µM (inactive)
same,GI50,[27],> 100 µM (inactive)
same,GI50,[28],> 100 µM (inactive)
same,GI50,[29],> 100 µM (inactive)
same,GI50,[31],94.4 µM (inactive)
same,GI50,[32],> 100 µM (inactive)
same,GI50,[33],> 100 µM (inactive)
same,GI50,[35],> 100 µM (inactive)
same,GI50,[36],> 100 µM (inactive)
same,GI50,[37],> 100 µM
same,GI50,[39],> 100 µM (inactive)
same,GI50,[55],> 100 µM (inactive)
same,GI50,[40],> 100 µM (inactive)
same,GI50,[41],> 100 µM (inactive)
same,GI50,[42],> 100 µM (inactive)
same,GI50,[43],> 100 µM (inactive)
same,GI50,[44],> 100 µM (inactive)
same,GI50,[45],> 100 µM (inactive)
same,GI50,[56],> 100 µM (inactive)
same,GI50,[46],> 100 µM (inactive)
same,GI50,[47],> 100 µM (inactive)
same,GI50,[48],> 100 µM (inactive)
same,GI50,[49],> 100 µM (inactive)
same,GI50,[50],> 100 µM (inactive)
same,GI50,[57],> 100 µM (inactive)
same,GI50,[51],> 100 µM (inactive)
same,GI50,[52],> 100 µM (inactive)
